Data set [1] in a line: Apparent permeability of the compound across apical side to basolateral side in human Caco2 cells. The format is ADME, cell-based. Conditions: Caco-2. A general note: Caco-2 monolayers are a common model of the intestinal barrier.
The next data set relates to Mus musculus. In words: Ex vivo inhibition of ULK1 in liver lysate of C57BL/6J mouse assessed as decrease in pATG13 (Ser318) levels at 10 mg/kg, po measured after 2 hrs by Western blot analysis. The format is functional, organism-based. In general terms: In western blotting, separated proteins are transferred to a membrane and probed.
Data set [2] deals with MDA-MB-468. Put plainly: Induction of apoptosis in human MDA-MB-468 cells assessed as necrotic cells at 10 uM measured after 18 hrs in normal growth media by AnnexinV/7-AAD staining based flow cytometric analysis (reference value: 0.2%). The class given is functional. A general note: Flow cytometry measures light scatter and fluorescence of single cells or particles in a stream.

In data set [3] the test system is MDA-MB-468. Put plainly: Induction of apoptosis in human MDA-MB-468 cells assessed as viable cells at 10 uM measured after 18 hrs in low-glucose, amino acid-free Earles balanced salt solution (EBSS) media by AnnexinV/7-AAD staining based flow cytometric analysis (reference value: 86.6%). The class given is functional. The conditions noted are these: read-out: Activity.

In data set [4] the test system is MDA-MB-468. Put plainly: Induction of apoptosis in human MDA-MB-468 cells assessed as late apoptotic cells at 10 uM measured after 18 hrs in low-glucose, amino acid-free Earles balanced salt solution (EBSS) media by AnnexinV/7-AAD staining based flow cytometric analysis (reference value: 7.6%). The format is functional.
For data set [5], the system named is MDA-MB-468. In words: Synergistic cytotoxicity against human MDA-MB-468 cells at 0.19 to 1.7 uM in presence of PARP inhibitor niraparib measured after 72 hrs by Celltiter-Glo assay. The class given is functional, cell-based. The conditions noted are these: dose 0.19-1.7 µM.

Here are results for 1 compound from ChEMBL document CHEMBL4673296 (J Med Chem, 2020).

The structures appear in SMILES notation. Calls of active or inactive are those of the source. No cut-off for these calls is given here. Some results are limits rather than exact numbers.

One may read the Papp A→B as the apparent permeability from the apical to the basolateral side of a cell layer. As for `COc1ccc(Nc2ncc(C(F)(F)F)c(NC3CC3)n2)cc1OC`, in data set [1], the Papp A→B was > 10 ×10⁻⁶ cm/s. In the data set with Mus musculus, the inhibition result was “Active”. For the same compound, the results for the Activity with MDA-MB-468 [2] and in the data set on MDA-MB-468 [4] were 0.2% and 18.4%, respectively. Further, in the data set on MDA-MB-468 [3], the viability at 10 µM came to 38.6%. Further, in the data set with MDA-MB-468 [5], the result was Active.
